We go through one compound from paper PMC12147034, “Identification of alkynyl nicotinamide HSN748 as a RET solvent-front mutant inhibitor with intracranial efficacy” (RSC Medicinal Chemistry, 2025).

Structures are written as SMILES. Where two headings read alike, the source gives them in different places.

Series [1] in a line: In vivo pharmacokinetics and brain distribution in mice. The settings on record: for Kp: CD1, mouse, brain and plasma, iv, 2 mg/kg. As to the method: For compound HSND19, male SD rats received an intravenous (IV) dose of 2 mg kg^−1 and an oral (PO) dose of 10 mg kg^−1. Both formulations were prepared in 10% DMSO/90% (20% HP-β-CD in water, w/w). Blood samples were collected at 0.25, 0.5, 1, 2, 4, 8, and 24 hours post-dosing. For compound HSN748, male SD rats received oral doses of 20, 50, and 100 mg kg^−1 in a solution of 0.5% methylcellulose (4000 cp)/0.1 M citrate buffer (pH 4.5). Blood samples were collected at 0.25, 0.5, 1, 2, 4, 6, 8, and 24 hours post-dosing. For IV administration, male CD1 mice received 2 mg kg^−1 prepared with 5% DMSO/5% Tween80/40% PEG400/50% PBS, with sampling at 0.083, 0.25, 0.5, 1, 2, 4, 8, and 24 hours.
In oral PK studies, blood samples were collected at each time point, with a total of 3 animals per study. In IV studies, animals were euthanized after blood collection at each time point to collect brain tissue, using a total of 21 animals per study. Whole blood samples were collected in heparinized tubes and centrifuged to separate plasma. Brain samples were rinsed, weighed, and immediately frozen in liquid nitrogen, and stored at −80 °C until analysis. The PK studies were conducted by Pharmaron (Beijing, China). Animal procedures were performed in accordance with the Guidelines for Care and Use of Laboratory Animals of Pharmaron (Beijing, China) and approved by the Animal Ethics Committee of Pharmaron (Beijing, China).
The mean concentration-time profiles were analyzed using Phoenix WinNonlin (version 8.4; Certara USA, Inc., Princeton, NJ) to calculate standard PK parameters, including the area under the curve from zero to infinity (AUC), bioavailability (F), clearance, volume of distribution, and half-life (t1/2).

In series [2] the test system is IMR-90 human lung fibroblasts. Nature of the series: Cell viability in IMR-90 fibroblasts (5 days). The following applies: non-cancerous cells, Fig. S4. It is filed as cell-based. As to the method:
The TEL-VEGFR2 cDNA was then subcloned into pLentP lentiviral vector.[21] and BaF3/TEL-VEGFR2 (B/TV) cells were generated by infecting BaF3 cells with the lentiviral TEL-VEGFR2 as described. Cell viability assay was performed using CellTiter-Glo reagent (G7573, Promega, Madison, WI, USA) after 3 days of drug treatment as described for BaF3-derived cells and 5 days for IMR-90 cells.
(A) IMR-90 normal human lung fibroblast cells were plated in 96-well plates and treated with indicated drugs for 5 days. (B) The non-transformed, IL-3-dependent BaF3 cells were cultured in medium with 0.5 nM mouse IL-3 in 96-well plates and treated as in (A) for 3 days. Viable cells were then determined using CellTiter-glo reagent. Data were from two triplicate experiments.
(1 picture or pasted object on this page, not shown here)

The mark [3] stands for this setting: male, CD1, plasma, Mouse, IV, 2 mg kg^-1.

Usually Cmax stands for the peak of the concentration-time curve. The term Tmax denotes the time at which the peak concentration occurs. In general, clearance refers to the volume of plasma or blood freed of the substance per unit of time. Lower therefore signals inefficient removal. Usually half-life stands for the time in which the quantity being followed falls by half. Take `CN1CCN(Cc2ccc(NC(=O)c3cncc(C#Cc4cnc5cccnn45)c3)cc2C(F)(F)F)CC1` [HSN748]: in series [1] (Mouse, IV, 2 mg kg^-1), the AUCBrain turned out to be 377 ng·h/mL; the “brain-to-plasma partition coefficient (Kp), AUCbrain/AUCPlasma” value is 0.42; the peak brain concentrations entry was “exceeding 198 ng ml^-1”. For the same compound, in series [1] (male, 2 mg kg^-1, read-out: brain exposure as % of total plasma exposure (AUCplasma)), the Kp is about 0.42. Further, in series [1] (male, 2 mg kg^-1, read-out: brain-to-plasma partition coefficient (Kp), AUCbrain/AUCPlasma), the Kp came out at 0.4. Besides, in series [1] (setting [3]), the highest level (Cmax) was 513 ng/mL, the Tmax was found to be 15 min, the clearance was 36.7 mL/min/kg and the half-life was 78 min. Further, the AUC in series [1] (male, CD1, plasma, Mouse, IV, 2 mg kg^-1, read-out: AUCPlasma) was determined as 907 ng·h/mL. In series [1] (male, CD1, plasma, Mouse, IV, 2 mg kg^-1, read-out: Vss), the Vd was 3.9 L/kg. Moreover, the “inhibitory activity in IMR-90 human lung fibroblasts” value in series [2] is on record as “little inhibitory activity”.
